Measured values published in PubChem BioAssay (NCI).
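GI50 marks 50% less growth. TGI: concentration producing complete growth inhibition.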

How the values were obtained:
Test in all cases: DTP human tumour cell line panel, 384-well format
786-0 renal = tested on: 786-0 renal
A498 renal = tested on: A498 renal
A549 NSCLC = tested on: A549 NSCLC
ACHN renal = tested on: ACHN renal
BT-549 breast = tested on: BT-549 breast
CAKI-1 renal = tested on: CAKI-1 renal
CCRF-CEM leukemia = tested on: CCRF-CEM leukemia
COLO 205 colon = tested on: COLO 205 colon
DU-145 prostate = tested on: DU-145 prostate
EKVX NSCLC = tested on: EKVX NSCLC
HCC-2998 colon = tested on: HCC-2998 colon
HCT-15 colon = tested on: HCT-15 colon
HOP-62 NSCLC = tested on: HOP-62 NSCLC
HOP-92 NSCLC = tested on: HOP-92 NSCLC
HS 578T breast = tested on: HS 578T breast
HT29 colon = tested on: HT29 colon
IGROV1 ovarian = tested on: IGROV1 ovarian
K-562 leukemia = tested on: K-562 leukemia
KM12 colon = tested on: KM12 colon
LOX IMVI melanoma = tested on: LOX IMVI melanoma
M14 melanoma = tested on: M14 melanoma
MALME-3M melanoma = tested on: MALME-3M melanoma
MCF7 breast = tested on: MCF7 breast
MDA-MB-231 breast = tested on: MDA-MB-231 breast
MDA-MB-435 melanoma = tested on: MDA-MB-435 melanoma
MDA-MB-468 breast = tested on: MDA-MB-468 breast
MOLT-4 leukemia = tested on: MOLT-4 leukemia
NCI-H226 lung = tested on: NCI-H226 lung
NCI-H23 lung = tested on: NCI-H23 lung
NCI-H322M lung = tested on: NCI-H322M lung
NCI-H460 NSCLC = tested on: NCI-H460 NSCLC
NCI-H522 lung = tested on: NCI-H522 lung
NCI/ADR-RES ovarian = tested on: NCI/ADR-RES ovarian
OVCAR-3 ovarian = tested on: OVCAR-3 ovarian
OVCAR-4 ovarian = tested on: OVCAR-4 ovarian
OVCAR-5 ovarian = tested on: OVCAR-5 ovarian
OVCAR-8 ovarian = tested on: OVCAR-8 ovarian
PC-3 prostate = tested on: PC-3 prostate
RXF 393 renal = tested on: RXF 393 renal
SF-268 CNS = tested on: SF-268 CNS
SF-295 CNS = tested on: SF-295 CNS
SF-539 CNS = tested on: SF-539 CNS
SK-MEL-28 melanoma = tested on: SK-MEL-28 melanoma
SK-MEL-5 melanoma = tested on: SK-MEL-5 melanoma
SK-OV-3 ovarian = tested on: SK-OV-3 ovarian
SN12C renal = tested on: SN12C renal
SNB-19 CNS = tested on: SNB-19 CNS
SNB-75 CNS = tested on: SNB-75 CNS
SR leukemia = tested on: SR leukemia
SW-620 colon = tested on: SW-620 colon
T-47D breast = tested on: T-47D breast
TK-10 renal = tested on: TK-10 renal
U251 glioblastoma = tested on: U251 glioblastoma
UACC-257 melanoma = tested on: UACC-257 melanoma
UACC-62 melanoma = tested on: UACC-62 melanoma

Q: For `Nc1ncc(-c2cnn(CCO)c2)c2scc(-c3ccc(NC(=O)Nc4cccc(F)c4)cc3)c12`, which GI50 ([…]-0 renal) is on record?
A: 373 nM

Q: What about the TGI (786-0 renal) of the same compound?
A: 1740 nM

Q: What about the GI50 (A498 renal) of the same compound?
A: 312 nM

Q: And the TGI (A498 renal)?
A: 1720 nM

Q: And the GI50 (A549 NSCLC)?
A: 263 nM

Q: And the TGI (A549 NSCLC)?
A: 3.77 µM

Q: What about the GI50 (ACHN renal) of the same compound?
A: 352 nM

Q: And the TGI (ACHN renal)?
A: 1770 nM

Q: And the GI50 (BT-549 breast)?
A: 323 nM

Q: What about the TGI (BT-549 breast) of the same compound?
A: 1280 nM

Q: What about the GI50 (CAKI-1 renal) of the same compound?
A: 212 nM

Q: And the TGI (CAKI-1 renal)?
A: 1200 nM

Q: What about the GI50 (CCRF-CEM leukemia) of the same compound?
A: < 10 nM

Q: What about the TGI (CCRF-CEM leukemia) of the same compound?
A: < 10 nM

Q: What about the GI50 (COLO 205 colon) of the same compound?
A: < 10 nM

Q: What about the TGI (COLO 205 colon) of the same compound?
A: 241 nM

Q: And the GI50 (DU-145 prostate)?
A: 462 nM

Q: What about the TGI (DU-145 prostate) of the same compound?
A: 2380 nM

Q: And the GI50 (EKVX NSCLC)?
A: 1030 nM

Q: What about the TGI (EKVX NSCLC) of the same compound?
A: 2980 nM

Q: And the GI50 (HCC-2998 colon)?
A: 1160 nM

Q: What about the TGI (HCC-2998 colon) of the same compound?
A: 2550 nM

Q: And the GI50 (HCT-15 colon)?
A: 349 nM

Q: What about the TGI (HCT-15 colon) of the same compound?
A: 1720 nM

Q: And the GI50 (HOP-62 NSCLC)?
A: 309 nM

Q: What about the TGI (HOP-62 NSCLC) of the same compound?
A: 1810 nM

Q: And the GI50 (HOP-92 NSCLC)?
A: 238 nM

Q: What about the TGI (HOP-92 NSCLC) of the same compound?
A: 1100 nM

Q: What about the GI50 (HS 578T breast) of the same compound?
A: 226 nM

Q: What about the TGI (HS 578T breast) of the same compound?
A: 943 nM

Q: And the GI50 (HT29 colon)?
A: 507 nM

Q: What about the TGI (HT29 colon) of the same compound?
A: 2640 nM

Q: And the GI50 (IGROV1 ovarian)?
A: 385 nM

Q: What about the TGI (IGROV1 ovarian) of the same compound?
A: 2550 nM

Q: What about the GI50 (K-562 leukemia) of the same compound?
A: 16.7 nM

Q: And the TGI (K-562 leukemia)?
A: 42.9 nM

Q: And the GI50 (KM12 colon)?
A: < 10 nM

Q: What about the TGI (KM12 colon) of the same compound?
A: 1210 nM

Q: What about the GI50 (LOX IMVI melanoma) of the same compound?
A: 318 nM

Q: And the TGI (LOX IMVI melanoma)?
A: 1320 nM

Q: And the GI50 (M14 melanoma)?
A: 147 nM

Q: What about the TGI (M14 melanoma) of the same compound?
A: 1140 nM

Q: And the GI50 (MALME-3M melanoma)?
A: 53.5 nM

Q: And the TGI (MALME-3M melanoma)?
A: 646 nM

Q: And the GI50 (MCF7 breast)?
A: 318 nM

Q: And the TGI (MCF7 breast)?
A: 1830 nM

Q: What about the GI50 (MDA-MB-231 breast) of the same compound?
A: 1010 nM

Q: And the TGI (MDA-MB-231 breast)?
A: 3.19 µM

Q: What about the GI50 (MDA-MB-435 melanoma) of the same compound?
A: 317 nM

Q: And the TGI (MDA-MB-435 melanoma)?
A: 1890 nM

Q: What about the GI50 (MDA-MB-468 breast) of the same compound?
A: 18.8 nM

Q: And the TGI (MDA-MB-468 breast)?
A: 74.9 nM

Q: And the GI50 (MOLT-4 leukemia)?
A: < 10 nM

Q: And the TGI (MOLT-4 leukemia)?
A: < 10 nM

Q: And the GI50 (NCI-H226 lung)?
A: 238 nM

Q: What about the TGI (NCI-H226 lung) of the same compound?
A: 2090 nM

Q: And the GI50 (NCI-H23 lung)?
A: 178 nM

Q: And the TGI (NCI-H23 lung)?
A: 603 nM

Q: And the GI50 (NCI-H322M lung)?
A: 634 nM

Q: And the TGI (NCI-H322M lung)?
A: 2890 nM

Q: And the GI50 (NCI-H460 NSCLC)?
A: < 10 nM

Q: And the TGI (NCI-H460 NSCLC)?
A: 1060 nM

Q: And the GI50 (NCI-H522 lung)?
A: 220 nM

Q: And the TGI (NCI-H522 lung)?
A: 928 nM

Q: What about the GI50 (NCI/ADR-RES ovarian) of the same compound?
A: 363 nM

Q: And the TGI (NCI/ADR-RES ovarian)?
A: 10 µM

Q: What about the GI50 (OVCAR-3 ovarian) of the same compound?
A: 188 nM

Q: And the TGI (OVCAR-3 ovarian)?
A: 2010 nM

Q: What about the GI50 (OVCAR-4 ovarian) of the same compound?
A: 674 nM

Q: And the TGI (OVCAR-4 ovarian)?
A: 2380 nM

Q: What about the GI50 (OVCAR-5 ovarian) of the same compound?
A: 612 nM

Q: What about the TGI (OVCAR-5 ovarian) of the same compound?
A: 2200 nM

Q: What about the GI50 (OVCAR-8 ovarian) of the same compound?
A: 315 nM

Q: And the TGI (OVCAR-8 ovarian)?
A: 2130 nM

Q: What about the GI50 (PC-3 prostate) of the same compound?
A: 1270 nM

Q: And the TGI (PC-3 prostate)?
A: 3.73 µM

Q: What about the GI50 (RXF 393 renal) of the same compound?
A: 275 nM

Q: And the TGI (RXF 393 renal)?
A: 1460 nM

Q: And the GI50 (SF-268 CNS)?
A: 354 nM

Q: What about the TGI (SF-268 CNS) of the same compound?
A: 1920 nM

Q: And the GI50 (SF-295 CNS)?
A: 186 nM

Q: What about the TGI (SF-295 CNS) of the same compound?
A: 1370 nM

Q: What about the GI50 (SF-539 CNS) of the same compound?
A: 169 nM

Q: What about the TGI (SF-539 CNS) of the same compound?
A: 1110 nM

Q: And the GI50 (SK-MEL-28 melanoma)?
A: 402 nM

Q: What about the TGI (SK-MEL-28 melanoma) of the same compound?
A: 1720 nM

Q: And the GI50 (SK-MEL-5 melanoma)?
A: 807 nM

Q: And the TGI (SK-MEL-5 melanoma)?
A: 2070 nM

Q: And the GI50 (SK-OV-3 ovarian)?
A: 297 nM

Q: And the TGI (SK-OV-3 ovarian)?
A: 1300 nM

Q: And the GI50 (SN12C renal)?
A: 179 nM

Q: What about the TGI (SN12C renal) of the same compound?
A: 555 nM

Q: What about the GI50 (SNB-19 CNS) of the same compound?
A: 836 nM

Q: What about the TGI (SNB-19 CNS) of the same compound?
A: 2550 nM

Q: What about the GI50 (SNB-75 CNS) of the same compound?
A: 172 nM

Q: And the TGI (SNB-75 CNS)?
A: 740 nM

Q: And the GI50 (SR leukemia)?
A: < 10 nM

Q: What about the TGI (SR leukemia) of the same compound?
A: < 10 nM

Q: And the GI50 (SW-620 colon)?
A: 242 nM

Q: What about the TGI (SW-620 colon) of the same compound?
A: 1130 nM

Q: What about the GI50 (T-47D breast) of the same compound?
A: 1450 nM

Q: And the TGI (T-47D breast)?
A: 3.31 µM

Q: What about the GI50 (TK-10 renal) of the same compound?
A: 920 nM

Q: And the TGI (TK-10 renal)?
A: 3.62 µM

Q: What about the GI50 (U251 glioblastoma) of the same compound?
A: 812 nM

Q: And the TGI (U251 glioblastoma)?
A: 2170 nM

Q: What about the GI50 (UACC-257 melanoma) of the same compound?
A: 311 nM

Q: And the TGI (UACC-257 melanoma)?
A: 1390 nM

Q: And the GI50 (UACC-62 melanoma)?
A: 376 nM

Q: And the TGI (UACC-62 melanoma)?
A: 1640 nM
